The record followed here is paper PMC10895678 (Journal of Medicinal Chemistry, 2024).

Data set [1] can be described thus: Caco-2 permeability and efflux. Format: in vitro ADME. Particulars: human, pH 7.4, 2 h; for efflux ratio at 2 h, 10 μM: Caco-2, pH 7.4, 10 μM; for Papp B→A at 2 h, 10 μM: Caco-2, read-out: Caco-2 B-A Paap. As for the experimental part: Compounds were solubilized (10 mM in DMSO), and the CacoReady Kit from ReadyCell S.L. (Barcelona, Spain) was used to determine compound permeability. Differentiated and polarized Caco-2 cells (21-day system) were plated on a 96-transwell permeable system as a single monolayer to allow for automated high throughput screening of compounds, and 10 μM BGAz compound was added to the system in HBSS buffer (pH 7.4) and incubated for 2 h at 37 °C in a CO2 incubator. Lucifer yellow was used as a cell monolayer integrity marker. Drug transport was assessed in both directions [apical to basolateral (A-B) and basolateral to apical (B-A)] across the cell monolayer. […] The BGAz compound concentrations were quantified using a calibration curve following analysis by LC-MS/MS, and the apparent permeability coefficient (Papp) and efflux ratio of the compound across the monolayer were calculated. The efflux ratio is used as an indicator of active efflux. The permeability coefficient (Papp) was calculated from the following equation: [drawing 2] 2 where dQ/dt is the amount of compound in the basal (A-B) or apical (B-A) compartment as a function of time (nmol/s). C0 is the initial concentration in the donor (apical or basal) compartment (Mean of T = 0) (nmol/mL) and A is the area of the transwell (cm^2).
The efflux ratio was then calculated as [drawing 3] 3
All experiments were performed in triplicate, and the MDR1 efflux markers Digoxin, quinidine, and […] were used as positive controls.
A general note: Passage across Caco-2 layers is used to estimate intestinal permeability.

The next data set concerns C. glutamicum pks13. In words: MIC, resazurin assay, C. glutamicum pks13 deletion mutant. Format: cell-based, Corynebacterium glutamicum. Particulars: modified Gompertz function. For orientation: Alamar Blue is a resazurin reagent that responds to reducing activity.
Another data set relates to M. bovis BCG. Format: cell-based, Mycobacterium bovis BCG.
The test system of another data set is BCG. Format: cell-based, Mycobacterium bovis BCG.
The subject of a further data set is BCG pTIC6-fbpB. Format: cell-based, Mycobacterium bovis BCG.
Another data set has as its system BCG pVV16-mmpL3. Format: cell-based, Mycobacterium bovis BCG.
The test system of a further data set is BCG pTIC6-fbpA. Format: cell-based, Mycobacterium bovis BCG.
The next data set has as its system M. smegmatis. Kind of data set: MIC determination, resazurin end point assay, M. smegmatis. Format: cell-based, Mycobacterium smegmatis. Conditions: Mycolicibacterium smegmatis; for MIC50: read-out: MIC50 smegmatis.
Another data set deals with hERG (Homo sapiens, UniProt Q12809). In words: cell-based. Format: cell-based. Conditions: for IC50: CHO cells expressing hERG, eight-point curve. As for the experimental part:
Compounds were solubilized to 30 mM in DMSO before dilution in PBS to […]. […] Eight-point concentration–response curves were generated using 3.16-fold serial dilutions from the top test concentration. Electrophysiological recordings were made from a Chinese Hamster Ovary cell line stably expressing the full length hERG channel. Single cell ionic currents were measured in the perforated patch clamp configuration (100 μg mL^–1 amphotericin) at room temperature (21–23 °C) using an IonWorks Quattro instrument (Molecular Devices). The internal solution contained (mM) 140 KCl, 1 MgCl2, 1 EGTA, and 20 HEPES and was buffered to pH 7.3. The external solution [PBS contained (mM): 138 NaCl, 2.7 KCl, 0.9 CaCl2, 0.5 MgCl2, 8 Na2HPO4, and 1.5 KH2PO4 buffered to pH 7.4]. Cells were clamped at a holding potential of −70 mV for 30 s and then stepped to +40 mV for one second. This was followed by a hyperpolarising step of 1 s to −30 mV to evoke the hERG tail current. Currents were measured from the tail step and referenced to the holding current. Compounds were then incubated for 3–4 min prior to a second measurement of the hERG signal using an identical pulsetrain.

A further data set deals with M. tuberculosis H37Rv. Kind of data set: Mycobacterial time kill experiments (total viable counts). Format: cell-based, Mycobacterium tuberculosis. Particulars: 96 μM.
Another data set concerns the target T1, CYP1A2 (Homo sapiens, UniProt P05177).
T1 construct: from tissue; host or cells: human liver microsomes
T1 sequence (P05177 1-516): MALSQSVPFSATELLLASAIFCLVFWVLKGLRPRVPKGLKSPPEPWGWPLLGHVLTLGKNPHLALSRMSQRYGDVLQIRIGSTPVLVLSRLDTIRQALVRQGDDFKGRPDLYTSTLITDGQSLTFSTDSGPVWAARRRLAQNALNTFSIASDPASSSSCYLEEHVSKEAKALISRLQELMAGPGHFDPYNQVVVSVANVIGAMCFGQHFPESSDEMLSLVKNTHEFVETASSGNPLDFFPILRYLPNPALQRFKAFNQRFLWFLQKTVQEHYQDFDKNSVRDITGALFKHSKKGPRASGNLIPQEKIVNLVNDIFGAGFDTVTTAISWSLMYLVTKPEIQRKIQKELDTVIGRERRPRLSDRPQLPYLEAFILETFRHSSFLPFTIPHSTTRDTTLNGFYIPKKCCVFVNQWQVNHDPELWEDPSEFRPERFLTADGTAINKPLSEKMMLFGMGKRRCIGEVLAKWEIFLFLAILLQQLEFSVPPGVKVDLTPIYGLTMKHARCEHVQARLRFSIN
In words: Cytochrome P450 inhibition, CYP1A2. Format: in vitro ADME. Particulars: human liver microsomes. As for the experimental part: Compounds were solubilized to 10 mM in DMSO. The BGAz compounds were incubated at concentrations of 0.003, 0.009, 0.03, 0.08, 0.25, 0.74, 2.2, 6.7, and 20 μM with CYP1A2, CYP2C9, CYP2C19, and CYP2D6 at 37 °C in the presence of the drug-like probe substrate […] the Phase 1 cofactor NADPH (1 mM). The formation of metabolites of the drug-like probe substrates in the absence and presence of the BGAz compound was monitored by LC-MS/MS, and the IC50 value was determined. All assays had two replicates per compound and included a positive control inhibitor.

[2] abbreviates: resazurin end point assay, modified Gompertz function, three biological replicates, read-out: M. smeg. MIC99.
[3] abbreviates: supplementary MIC data file, read-out: MIC99 smegmatis.
Setting [4] is: preincubated 30 min prior to NADPH, read-out: CYP1A2 [pre-inc] IC50.
Where [5] appears, read: without pre-incubation, read-out: CYP1A2 IC50.

Molecules are shown by their SMILES. Converted amounts (≈) assume the structure as drawn. Like-named read-outs stand apart in the source and are kept apart here. Some results are limits rather than exact numbers.

Chain of hERG (Q12809 whole entry): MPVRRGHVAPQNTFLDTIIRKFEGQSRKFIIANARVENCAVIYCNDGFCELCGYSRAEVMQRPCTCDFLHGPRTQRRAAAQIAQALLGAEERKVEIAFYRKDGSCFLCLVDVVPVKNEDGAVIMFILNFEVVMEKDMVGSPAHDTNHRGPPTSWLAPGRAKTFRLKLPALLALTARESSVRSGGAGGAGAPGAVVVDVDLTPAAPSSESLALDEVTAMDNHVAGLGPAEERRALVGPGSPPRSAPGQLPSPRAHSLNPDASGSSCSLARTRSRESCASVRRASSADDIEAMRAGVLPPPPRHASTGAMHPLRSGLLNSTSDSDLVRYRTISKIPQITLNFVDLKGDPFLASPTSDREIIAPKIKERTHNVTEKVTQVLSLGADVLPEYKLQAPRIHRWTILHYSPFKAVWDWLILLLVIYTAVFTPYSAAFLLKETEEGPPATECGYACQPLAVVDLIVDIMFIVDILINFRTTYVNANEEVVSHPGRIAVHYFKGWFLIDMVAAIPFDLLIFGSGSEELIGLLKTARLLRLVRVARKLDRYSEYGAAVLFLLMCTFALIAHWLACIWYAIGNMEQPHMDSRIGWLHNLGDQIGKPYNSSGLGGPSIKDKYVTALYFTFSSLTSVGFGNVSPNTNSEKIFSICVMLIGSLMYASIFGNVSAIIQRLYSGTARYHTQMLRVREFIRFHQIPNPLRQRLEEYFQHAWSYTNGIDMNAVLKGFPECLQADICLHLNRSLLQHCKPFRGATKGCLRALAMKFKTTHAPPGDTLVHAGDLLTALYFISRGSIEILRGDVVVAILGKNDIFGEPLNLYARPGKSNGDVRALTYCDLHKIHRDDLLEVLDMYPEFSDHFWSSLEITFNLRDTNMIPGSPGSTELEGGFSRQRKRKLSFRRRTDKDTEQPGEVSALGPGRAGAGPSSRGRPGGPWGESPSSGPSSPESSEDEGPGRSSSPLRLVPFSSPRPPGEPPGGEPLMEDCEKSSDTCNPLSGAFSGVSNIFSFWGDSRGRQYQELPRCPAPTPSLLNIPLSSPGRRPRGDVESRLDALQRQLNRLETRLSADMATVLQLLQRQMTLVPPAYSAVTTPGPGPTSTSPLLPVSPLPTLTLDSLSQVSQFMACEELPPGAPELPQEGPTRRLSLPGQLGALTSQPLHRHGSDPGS

The efflux ratio is the permeability from basolateral to apical divided by that in the opposite direction, in the common usage. As a reminder, the MIC99 is the lowest concentration that inhibits either 99% of growth or 99% of the strains tested, depending on the study. The term MIC50 denotes the lowest concentration that inhibits either 50% of growth or 50% of the strains tested, depending on the study. One may read the IC50 as the concentration at which inhibition is half-maximal. For the compound `Brc1cc(Br)cc(C2CC(CN3CCCC3)N2Cc2ccccc2Br)c1` (stereo not drawn) [BGAz-004], in [1], the efflux ratio at 2 h, 10 μM came out at 1.4 and the Papp B→A at 2 h, 10 μM was found to be 0.5 ×10⁻⁶ cm/s. Also, the “C. glutamicum pks13 MIC” value in the data set on C. glutamicum pks13 was found to be 10. For the same compound, in the data set on M. bovis BCG, the “log2FoldChange, gene BCG_0001” value is -0.1191; the “log2FoldChange, gene BCG_0002” value is reported as -0.5569; the “log2FoldChange, gene BCG_0003” value is on record as -0.5971; the “log2FoldChange, gene BCG_0004” value is listed as -0.2384. Besides, the “log2FoldChange, gene BCG_0005” value in the data set with M. bovis BCG amounted to 0.5266. The “TMM and TDM in cell envelope lipids” value in the data set with BCG (0.5 × MIC) is listed as “significant reduction”. Further, in the data set with BCG pTIC6-fbpB, the BCG pTIC6-fbpB MIC was determined as 28 µM and the “increase in MIC upon overexpression of FbpB” value is reported as “two-fold increase”. Besides, in the data set on BCG pVV16-mmpL3, the BCG pVV16-mmpL3 MIC came out at 40 µM. This compound also yielded a BCG pTIC6-fbpA MIC in the data set with BCG pTIC6-fbpA of 20 µM. The MIC99 in the data set on M. smegmatis (setting [2]) amounted to 14 µM (≈ 7.6 µg/mL). The MIC50 with M. smegmatis (supplementary MIC data file) was 6 µM (≈ 3.26 µg/mL). The MIC99 in the data set on M. smegmatis (setting [3]) is 14 µM (≈ 7.6 µg/mL). In addition, inhibition against hERG was half-maximal at 25 µM (IC50). The “reduction of total viable count” value in the data set with M. tuberculosis H37Rv (after 6 days of exposure) is 0.79 ± 2.20 log10 CFU mL^–1. Besides, in the data set on M. tuberculosis H37Rv (after 14 days' exposure), the “reduction of total viable count” value is reported as 1.90 ± 1.28 log10 CFU mL^–1. In addition, the IC50 on CYP1A2 (setting [4]) is > 20 µM. Moreover, on CYP1A2 (setting [5]), the IC50 was > 20 µM.

Turning to `FC(F)(F)Oc1ccc(C2CC(CN3CCCC3)N2Cc2ccccc2OC(F)(F)F)cc1` (stereo not drawn) [BGAz-002], in [1], the efflux ratio at 2 h, 10 μM was determined as 1.2. For the same compound, in [1], the Papp B→A at 2 h, 10 μM came out at 2.8 ×10⁻⁶ cm/s. Further, the “C. glutamicum pks13 MIC” value in the data set with C. glutamicum pks13 stood at 50. The compound also yielded a BCG pVV16-mmpL3 MIC in the data set on BCG pVV16-mmpL3 of 25 µM. In addition, the MIC50 in the data set on M. smegmatis came to 49 µM (≈ 23.2 µg/mL). The MIC99 with M. smegmatis (read-out: MIC99 smegmatis) amounted to 62 µM (≈ 29.4 µg/mL); in the data set on M. smegmatis (setting [2]), 32 µM (≈ 15.2 µg/mL). The IC50 against hERG (human, CHO cells stably expressing hERG, pH 7.4) is > 167 µM; at CYP1A2 (setting [4]), > 20 µM; at CYP1A2 (setting [5]), > 20 µM. Further, the inhibition at 167 µM at hERG (human, pH 7.4, 167 μM, read-out: hERG inhibition at top test concentration) was < 50%.

`CNCC1CC(c2ccc(OC(F)(F)F)cc2)N1Cc1ccccc1OC(F)(F)F` (stereo not drawn) [BGAz-005]: in data set [1], the efflux ratio at 2 h, 10 μM is < 1 and the Papp B→A at 2 h, 10 μM turned out to be 1.4 ×10⁻⁶ cm/s. Also, in the data set with C. glutamicum pks13, the “C. glutamicum pks13 MIC” value came to 10. In addition, in the data set with M. bovis BCG, the “log2FoldChange, gene BCG_0001” value is -0.2829; the “log2FoldChange, gene BCG_0002” value was -0.6164; the “log2FoldChange, gene BCG_0003” value is -0.7815; the “log2FoldChange, gene BCG_0004” value is -0.2846. Moreover, in the data set on M. bovis BCG, the “log2FoldChange, gene BCG_0005” value is 0.5809. Besides, in the data set with M. bovis BCG (8 h exposure, 1 × MIC), the induced genes worked out at 160 and the repressed genes turned out to be 126. Further, the “TMM and TDM in cell envelope lipids” value with BCG (0.5 × MIC) is on record as “significant reduction”. In addition, in the data set on BCG (concentrations beyond the MIC), the “TMM and TDM in cell envelope lipids” value is “complete loss”. Also, in the data set on BCG pTIC6-fbpB, the BCG pTIC6-fbpB MIC came to 50 µM and the “increase in MIC upon overexpression of FbpB” value is given as “two-fold increase”. The compound further returned a BCG pTIC6-fbpA MIC in the data set on BCG pTIC6-fbpA of 25 µM. Also, the MIC99 in the data set with M. smegmatis (setting [2]) was 24 µM (≈ 10.4 µg/mL). In the data set on M. smegmatis (supplementary MIC data file), the MIC50 is 9 µM (≈ 3.91 µg/mL). Further, the MIC99 in the data set with M. smegmatis (setting [3]) was 24 µM (≈ 10.4 µg/mL). The midpoint of inhibition against hERG, the IC50, lay at 12.7 µM. For the same compound, the “reduction of total viable count” value in the data set on M. tuberculosis H37Rv (after 6 days of exposure) is on record as 3.28 ± 1.00 log10 CFU mL^–1. The half-inhibitory concentration (IC50) on CYP1A2 (setting [4]) was > 20 µM. The IC50 at CYP1A2 (setting [5]) was > 20 µM.
